From publication PMC8538783, “Green Oxidation of Amines by a Novel Cold-Adapted Monoamine Oxidase MAO P3 from Psychrophilic Fungi Pseudogymnoascus sp. P3” (Molecules, 2021)
“And” between values parts separate entries of the source, which are not always exact repeats. Identical values can stand only once. Like-named read-outs stand apart in the source and are kept apart here.

Columns and labels:
[1] = tested on: MAO N D5; parameters: method as in PMID 20146293; settings: recombinant MAO N D5; cited from earlier work
[2] = tested on: MAO P3; assay: Initial oxidation screening: bioconversion of amine substrates by cell-free extract, GC-MS; type: biochemical, Pseudogymnoascus sp. P3; settings: for Rate of Oxidation: 10 mM substrate, 10 mM potassium phosphate buffer pH 7.2, cell-free intracellular extract of P3 strain, 4 h at 30 °C, relative to compound 9 = 100%
Procedure: (§1) Substrate specificity of MAO P3 was examined towards sixteen amine substrates (listed in Table 3) that differed in the number of carbons and various substitutions. Bioconversion was carried out in 5 mL glass tubes (Schott, Germany), where the total volume of the reaction was 2.5 mL and was comprised of 1 mL of MAO P3 (1 U/mL), where the cell-free extracts were used for the initial oxidation screening and the purified enzyme, for substrate specificity. An amount of 0.75 mL of a substrate (in the range of concentrations between 10 and 100 mM) was resuspended in 0.1 M potassium phosphate pH 7.2, and 0.75 mL of 10 mM potassium phosphate buffer pH 7.2. Initial oxidation screening was carried out for 4 h at 30 °C, 810 rpm. The substrate specificity was measured at 30 °C; reactions were carried out for 5 h, 810 rpm. In order to analyze the products of the bioconversion, samples were first neutralized by the addition of 0.25 mL of 1 M NaOH. An amount of 0.5 mL of dichloromethane was added to samples and incubated at room temperature with shaking for 1 min. The samples were centrifuged for 5 min, 5000 rpm, 4 °C. The organic phase was collected for the gas chromatography-mass spectrometry (GC-MS) analysis. The Km values were calculated based on […] curves (see the Supplementary Materials).
Samples were injected with the GerstelMultiPurpose sampler (MPS 2). […] Helium was used as a carrier gas with a flow rate of 1.5 mL/min. The injector temperature was held at 250 °C. The oven temperature was initially held at 40 °C for 2 min, ramped up to 200 °C by 10 °C/min; the total run time was 20 min. The detector was operated in EI mode with the transfer line maintained at 280 °C. All substrates were purchased from MerckMillipore, USA, and quantified by GC analysis based on their peak areas and calibration curves prepared for each individual. GC-MS spectra are presented in the Supplementary Materials.

[3] = tested on: MAO P3; assay: Substrate specificity (Vmax, Km) of purified MAO P3, GC-MS; type: biochemical, Pseudogymnoascus sp. P3
Procedure: as §1
GC-MS analyses were carried out on a Pegasus 4D (LECO, USA) apparatus, equipped with an Agilent 6890N gas chromatograph coupled with a time-of-flight mass spectrometer (LECO, Saint Joseph, MI, USA). Samples were injected with the GerstelMultiPurpose sampler (MPS 2). The GC was fitted with a BPX5 capillary column of 30 m × 0.25 mm × 0.25 µm (SGE). Helium was used as a carrier gas with a flow rate of 1.5 mL/min. The injector temperature was held at 250 °C. The oven temperature was initially held at 40 °C for 2 min, ramped up to 200 °C by 10 °C/min; the total run time was 20 min. The detector was operated in EI mode with the transfer line maintained at 280 °C. All substrates were purchased from MerckMillipore, USA, and quantified by GC analysis based on their peak areas and calibration curves prepared for each individual. GC-MS spectra are presented in the Supplementary Materials.
Method S3. Determination of Km and Vmax values based on Lineweaver-Burk curves
The double-reciprocal curve was create based on the inverse initial velocity as a function of the inverse substrate
concentration. Curves were created for each amine substrate (Fig. S2), based on the results of GC-MS analysis (Paragraph
Figure S4. The double-reciprocal curves for MAO P3 amines substrates: A. 3-azabicyclo[3.3.0]octane;
B. hexamethyleneimine; C. 6,6-dimethyl-3-azabicyclohexane; D. cyclopentylamine; E. α-methylbenzylamine;
F. pyrrolidine; G. sec-butylamine; H. indoline.
(1 picture or pasted object on this page, not shown here)

[4] = tested on: MAO P3; assay: Effect of extra FAD in the reaction mixture on MAO P3 activity; type: biochemical, Pseudogymnoascus sp. P3; settings: 0.2 mM FAD in reaction mixture, compared to holoenzyme without supplementation of FAD
Procedure: (§2) The activity of MAO P3 was measured by a colorimetric method which is based on the formation of orange-brownish tetraguaiacol in the presence of H2O2 and peroxidase (insert in Figure 2A). The reaction mixture contained 0.5 mL of the enzyme sample, 0.25 mL of 10 mM potassium phosphate buffer pH 7.2, 0.25 mL of 20 mM amine substrate (to identify a potential MAO producer, primary–n-butylamine, and secondary–6,6-dimethyl-3-azabicyclohexane, amines were used), 0.02 mL of peroxidase (90 U/mL), and 0.4 mL of 0.02 M guaiacol (all reagents from MerckMillipore, Burlington, MA, USA). The reaction mixture was incubated at 30 °C for 30 min.
Reconstruction of flavoprotein MAO P3 was carried out in 10 mM potassium phosphate buffer pH 7.2 in a total volume of 5 mL, with different conditions of: FAD concentration (5, 10, 15, 20, 25, and 50 μM), temperature (5, 10, 15, 20, 25, and 30 °C), and time of incubation (from 10 min to 60 min). After incubation, extra FAD was removed by centrifugation at 5000 rpm, 4 °C, 20 min in Centricon concentrators of MWCO of 10 kDa (MerckMillipore, Burlington, MA, USA). The absorption spectrum was measured on a flat-bottom 96-well plate on a MultiScanGo plate reader (ThermoFisher Scientific, Waltham, MA, USA).

[5] = tested on: native MAO N; settings: cited from earlier work
[6] = tested on: MAO P3; assay: Initial oxidation screening: bioconversion of amine substrates by cell-free extract, GC-MS; type: biochemical, Pseudogymnoascus sp. P3; settings: 24 h of incubation at 30 °C with shaking
[7] = tested on: MAO A; parameters: method as in PMID 11134050; settings: cited from earlier work
[8] = target: MAO P3; assay: Inhibition analysis of MAO P3 by clorgyline, colorimetric guaiacol/peroxidase assay; type: biochemical, Pseudogymnoascus sp. P3; settings: preincubated 30 min at 30 °C; substrate 6,6-dimethyl-3-azabicyclohexane
Procedure: The enzyme was preincubated with different concentrations (from 0.1 to 10^−8 mM) of clorgyline (MerckMillipore, Burlington, MA, USA) for 30 min at 30 °C. MAO P3 activity was measured according to the above-mentioned procedure. Clorgyline solution (1 mM) was prepared in 10 mM potassium phosphate buffer pH 7.2.

[9] = tested on: MAO; assay: Colorimetric MAO activity assay of intracellular protein extract of P3 strain; type: biochemical, Pseudogymnoascus sp. P3; settings: 30 °C, 30 min
Procedure: as §2
The absorbance of the samples was measured at 436 nm on the UV/visible spectrophotometer (UV-1800 Shimatdsu, Kyoto, Japan). A unit of enzyme activity was defined as the amount of enzyme that catalyzes the formation of 1.0 μmol of H2O2 per min.
Figure 2 MAO biosynthesis in 14 psychrophilic fungi strains. The activity was measured towards a primary amine (n-butylamine) and a secondary amine (6,6-dimethyl-3-azabicyclohexane), for each substrate. The reaction was carried out at 30 °C for 30 min with continuous shaking in 10 mM potassium phosphate buffer […]. (A) Activity after the growth in the induction medium, without inoculation from a solid culture; insert: scheme of the measurement of MAO activity in psychrophilic fungi strains; absorbance of tetraguaiacol is measured at 436 nm. (B) Activity after the growth in the induction medium, with inoculation from a solid culture.

[10] = tested on: Pseudogymnoascus sp. P3; type: cell-based
Procedure: The 125 mL cultures were inoculated from the glycerol stocks. The strains were cultured at 20 °C for 14 days with shaking at 100 rpm in 0.5 L flasks. The growth medium was composed of 3% (w/v) glucose, 0.1% (w/v) KH2PO4, 0.05% (w/v) MgSO4, 0.05% (w/v) KCl, and 0.1% (w/v) NaNO3, which was replaced by 0.1% (v/v) of n-butylamine (MAO inducer) in the induction medium. The concentration of n-butylamine was optimized (tested concentrations: 0.01, 0.03, 0.05, 0.10, 0.15, 0.20, and 0.50%) to maximize the biosynthesis of MAO. The mycelium was collected by filtration, wet mass was weighed and used for further experiments.
as §2

[11] = tested on: MAO N (N338S, M348K); parameters: method as in PMID 12207381; settings: MAO N with two point mutations (N338S, M348K); cited from earlier work
[12] = purified MAO P3 1 U/mL, 0.1 M potassium phosphate buffer pH 7.2, 30 °C
[13] = induction medium inoculated from glycerol stock (no solid preculture)
[14] = inoculation from solid culture (7 days, 20 °C)

C1CC2CNCC2C1 (centres unmarked) [Substrate 10, 3-azabicyclo[3.3.0]octane]
rate of initial oxidation [1]: 16% | Rate of Oxidation [2]: 67% | Km [3, 12]: 10400 µM | Vmax [3, 12]: 0.24 mM/h

Cc1cc2nc3c(=O)[nH]c(=O)nc-3n(C[C@H](O)[C@H](O)[C@H](O)COP(=O)(O)OP(=O)(O)OC[C@H]3O[C@@H](n4cnc5c(N)ncnc54)[C@H](O)[C@@H]3O)c2cc1C [FAD, flavin adenine dinucleotide]
change of MAO P3 activity [4]: increased two-fold

CCCCCCN [hexylamine]
Km [5]: 200 µM

NC(c1ccccc1)c1ccccc1 [Substrate 14, benzylhydrylamine]
conversion by MAO P3 after prolonged incubation (in words) [6]: unconverted | oxidation/conversion by MAO P3 (in words) [2]: not able to oxidize | Rate of Oxidation [2]: 0%

NCCN1CCCC1 [Substrate 13, 1-(2-aminoethyl)pyrrolidine]
conversion by MAO P3 after prolonged incubation (in words) [6]: unconverted | oxidation/conversion by MAO P3 (in words) [2]: no activity | Rate of Oxidation [2]: 0%

NCCCCN [Substrate 15, putrescine]
oxidation/conversion by MAO P3 (in words) [2]: not able to convert | Rate of Oxidation [2]: 0%

CCCCCN [amylamine]
kcat [5]: 16.67 s⁻¹

CCC(C)N (centres unmarked) [Substrate 1, sec-butylamine]
Rate of Oxidation [2]: 29% | Km [3, 12]: 18000 µM | Vmax [3, 12]: 0.17 mM/h

NC1CCCC1 [Substrate 2, cyclopentylamine]
Rate of Oxidation [2]: 31% | Km [3, 12]: 8220 µM | Vmax [3, 12]: 0.47 mM/h

NCc1ccccc1 [benzylamine]
Km [5]: 240 µM | kcat [5]: 6.18 s⁻¹

NCCc1ccccc1 [2-phenethylamine]
Km [5]: 100 µM

NCCCCNCCCN [Substrate 16, spermidine]
oxidation/conversion by MAO P3 (in words) [2]: not able to convert | Rate of Oxidation [2]: 0%

CN1CCCC1 [Substrate 4, 1-methylpyrrolidine]
conversion by MAO P3 after prolonged incubation (in words) [6]: unconverted | oxidation/conversion by MAO P3 (in words) [2]: no activity | Rate of Oxidation [2]: 0%

C#CCN(C)CCCOc1ccc(Cl)cc1Cl [clorgyline]
IC50 [7]: 1.2 nM | low concentration that inhibits MAO A [7]: 10^−8 M | IC50 [8]: 18 nM

C1CCNC1 [Substrate 3, pyrrolidine]
Rate of Oxidation [2]: 36% | Km [3, 12]: 14300 µM | Vmax [3, 12]: 0.16 mM/h

C1CCCNCC1 [Substrate 6, hexamethyleneimine]
Rate of Oxidation [2]: 30% | Km [3, 12]: 2640 µM and 2560 µM | Vmax [3, 12]: 0.72 mM/h

CC1(C)C2CNCC21 (centres unmarked) [Substrate 9, 6,6-dimethyl-3-azabicyclo[3.1.0]hexane]
Rate of Oxidation [2]: 100% | Km [3, 12]: 2400 µM | Vmax [3, 12]: 1.1 mM/h | MAO activity towards the amine [9, 13]: 959 ± 7.2 U/L | MAO activity towards the amine [9, 14]: 1470 ± 10.6 U/L

CCCCN [n-butylamine]
Km [5]: 600 µM | effect on the psychrophilic strains [10]: acted deadly | Relative Activity of MAO P3 ([10]; 0.01% n-butylamine in induction medium): 6.4 ± 0.31% | Relative Activity of MAO P3 ([10]; 0.03% n-butylamine in induction medium): 19.9 ± 0.31% | Relative Activity of MAO P3 ([10]; 0.05% n-butylamine in induction medium): 30.7 ± 0.20% | Relative Activity of MAO P3 ([10]; 0.10% n-butylamine in induction medium): 100.0% | Relative Activity of MAO P3 ([10]; 0.15% n-butylamine in induction medium): 45.9 ± 0.34% | Relative Activity of MAO P3 ([10]; 0.20% n-butylamine in induction medium): 9.6 ± 0.20% | Relative Activity of MAO P3 ([10]; 0.50% n-butylamine in induction medium): 0.0% | MAO activity towards the amine [9, 13]: 910 ± 4.8 U/L | MAO activity towards the amine [9, 14]: 1350 ± 10.5 U/L

c1ccc2c(c1)CCN2 [Substrate 12, indoline]
Rate of Oxidation [2]: 9% | Km ([3]; pH 7.2): 20400 µM | Vmax [3, 12]: 0.14 mM/h

O=C1NC2C=CC1C2 (centres unmarked) [Substrate 7, 2-azabicyclo[2.2.1]hept-5-en-3-one]
Rate of Oxidation [2]: 0%

CC(N)c1ccccc1 (stereo not drawn) [Substrate 5, α-methylbenzylamine]
kcat [5]: 0.00283 s⁻¹ | Rate of Oxidation [2]: 41% | Km [3, 12]: 4100 µM and 4130 µM | Vmax [3, 12]: 0.27 mM/h | Km [11]: 400 µM

c1ccncc1 [Substrate 8, pyridine]
Rate of Oxidation [2]: 0%

C1CC[C@H]2CNC[C@H]2C1 [Substrate 11, cis-8-azabicyclo[4.3.0]nonane]
rate of initial oxidation [1]: 19% | conversion by MAO P3 after prolonged incubation (in words) [6]: unconverted | Rate of Oxidation [2]: 0%

CCCN [propylamine]
Km [5]: 1600 µM
